Laboratory results taken from patent US20170190705A1, “Compositions and Methods for Inhibiting BMP” (THE BRIGHAM AND WOMAN'S HOSPITAL, INC., priority 2014, published 2017).

Key:
Assay type in all cases: biochemical
[1] = molecular target: NEK7 (Homo sapiens, UniProt Q8TDX7); assay: Kinome profiling NEK7; conditions: read-out: Inhibitory activity NEK7; for inhibition at 0.1 µM: 100 nM
Description: (§1) . The kinome-wide selectivity was determined following the methods previously reported by Mohedas et al., ACS Chem Biol 2013, 8, 1291-1302 and Sanvitale et al., PLoS One 2013, 8, e62721.

[2] = molecular target: DYRK1B (Homo sapiens, UniProt Q9Y463); assay: Kinome profiling DYRK1B; conditions: read-out: Inhibitory activity DYRK1B; for inhibition at 0.1 µM: 100 nM
Description: as §1

[3] = molecular target: T1, BMX (Homo sapiens, UniProt P51813); assay: Kinome profiling BMX; conditions: read-out: Inhibitory activity BMX; for inhibition at 0.1 µM: 100 nM
T1 sequence (P51813 1-675): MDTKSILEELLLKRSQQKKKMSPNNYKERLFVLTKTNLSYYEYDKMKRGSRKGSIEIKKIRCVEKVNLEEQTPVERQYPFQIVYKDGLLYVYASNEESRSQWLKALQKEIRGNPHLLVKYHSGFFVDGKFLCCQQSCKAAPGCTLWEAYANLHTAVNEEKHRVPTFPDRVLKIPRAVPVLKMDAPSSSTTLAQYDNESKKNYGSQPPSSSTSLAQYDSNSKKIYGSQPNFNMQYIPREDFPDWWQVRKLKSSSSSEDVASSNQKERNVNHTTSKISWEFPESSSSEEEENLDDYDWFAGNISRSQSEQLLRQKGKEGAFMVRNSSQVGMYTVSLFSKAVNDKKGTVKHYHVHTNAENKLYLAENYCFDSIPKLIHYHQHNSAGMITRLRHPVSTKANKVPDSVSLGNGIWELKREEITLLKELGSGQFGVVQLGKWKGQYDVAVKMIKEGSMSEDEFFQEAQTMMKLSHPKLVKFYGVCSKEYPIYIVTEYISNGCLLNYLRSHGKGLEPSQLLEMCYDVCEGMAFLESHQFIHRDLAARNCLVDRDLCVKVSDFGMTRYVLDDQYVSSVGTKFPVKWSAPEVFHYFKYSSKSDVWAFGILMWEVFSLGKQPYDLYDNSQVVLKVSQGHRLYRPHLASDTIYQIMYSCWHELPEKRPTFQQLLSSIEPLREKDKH
Description: as §1

[4] = molecular target: T2, PRKD1 (Homo sapiens, UniProt Q15139); assay: Kinome profiling PRKD1; conditions: read-out: Inhibitory activity PRKD1; for inhibition at 0.1 µM: 100 nM
T2 sequence (Q15139 1-912): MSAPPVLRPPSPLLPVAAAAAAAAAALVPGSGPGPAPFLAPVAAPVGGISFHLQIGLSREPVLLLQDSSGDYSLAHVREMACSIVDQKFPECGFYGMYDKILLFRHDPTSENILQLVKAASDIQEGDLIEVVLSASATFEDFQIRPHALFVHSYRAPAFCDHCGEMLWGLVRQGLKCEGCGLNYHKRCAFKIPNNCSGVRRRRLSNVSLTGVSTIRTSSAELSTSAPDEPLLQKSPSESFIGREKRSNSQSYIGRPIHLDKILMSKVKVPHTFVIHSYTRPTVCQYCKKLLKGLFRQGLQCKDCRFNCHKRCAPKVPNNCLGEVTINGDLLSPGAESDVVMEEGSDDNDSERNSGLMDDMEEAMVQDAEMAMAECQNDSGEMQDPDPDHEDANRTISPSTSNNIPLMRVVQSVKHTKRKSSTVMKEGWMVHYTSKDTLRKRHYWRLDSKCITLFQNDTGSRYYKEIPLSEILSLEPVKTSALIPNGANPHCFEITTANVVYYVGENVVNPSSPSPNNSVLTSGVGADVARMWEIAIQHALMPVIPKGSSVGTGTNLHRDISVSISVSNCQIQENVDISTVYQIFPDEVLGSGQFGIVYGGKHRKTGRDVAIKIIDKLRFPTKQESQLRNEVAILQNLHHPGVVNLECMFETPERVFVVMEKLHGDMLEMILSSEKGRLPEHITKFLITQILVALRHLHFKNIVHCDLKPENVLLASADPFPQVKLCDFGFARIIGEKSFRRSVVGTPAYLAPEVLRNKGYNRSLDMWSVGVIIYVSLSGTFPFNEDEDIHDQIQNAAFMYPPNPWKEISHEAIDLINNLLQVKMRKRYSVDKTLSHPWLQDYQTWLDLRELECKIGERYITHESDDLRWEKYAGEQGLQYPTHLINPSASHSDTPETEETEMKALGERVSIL
Description: as §1

[5] = molecular target: T3, NEK9 (Homo sapiens, UniProt Q8TD19); assay: Kinome profiling NEK9; conditions: read-out: Inhibitory activity NEK9; for inhibition at 0.1 µM: 100 nM
T3 sequence (Q8TD19 1-979): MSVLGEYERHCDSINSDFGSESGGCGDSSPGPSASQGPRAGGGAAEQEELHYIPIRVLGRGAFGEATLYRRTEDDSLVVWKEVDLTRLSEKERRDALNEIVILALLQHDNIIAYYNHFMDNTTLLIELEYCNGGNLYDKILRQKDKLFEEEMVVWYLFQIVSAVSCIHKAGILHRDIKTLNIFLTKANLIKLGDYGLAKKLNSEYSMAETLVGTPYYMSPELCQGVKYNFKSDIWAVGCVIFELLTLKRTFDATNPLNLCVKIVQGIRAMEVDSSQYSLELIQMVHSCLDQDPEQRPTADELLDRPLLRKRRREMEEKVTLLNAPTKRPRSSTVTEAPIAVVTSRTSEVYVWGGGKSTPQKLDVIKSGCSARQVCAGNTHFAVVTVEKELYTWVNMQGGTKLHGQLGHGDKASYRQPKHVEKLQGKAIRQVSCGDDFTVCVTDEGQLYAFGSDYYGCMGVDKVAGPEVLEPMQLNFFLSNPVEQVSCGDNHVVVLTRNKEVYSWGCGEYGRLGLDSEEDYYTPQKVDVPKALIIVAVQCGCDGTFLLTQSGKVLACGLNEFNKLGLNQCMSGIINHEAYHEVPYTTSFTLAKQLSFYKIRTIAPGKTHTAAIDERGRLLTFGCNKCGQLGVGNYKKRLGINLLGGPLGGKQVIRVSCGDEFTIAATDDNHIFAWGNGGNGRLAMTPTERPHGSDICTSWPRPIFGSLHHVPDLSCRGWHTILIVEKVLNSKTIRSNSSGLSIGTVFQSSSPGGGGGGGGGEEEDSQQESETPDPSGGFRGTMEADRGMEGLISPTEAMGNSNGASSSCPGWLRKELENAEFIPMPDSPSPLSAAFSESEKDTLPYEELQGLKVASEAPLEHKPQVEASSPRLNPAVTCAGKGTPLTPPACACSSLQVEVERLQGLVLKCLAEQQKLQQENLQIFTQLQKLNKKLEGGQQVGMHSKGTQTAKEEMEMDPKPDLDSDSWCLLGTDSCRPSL
Description: as §1

Sequence of NEK7 (Q8TDX7 whole entry): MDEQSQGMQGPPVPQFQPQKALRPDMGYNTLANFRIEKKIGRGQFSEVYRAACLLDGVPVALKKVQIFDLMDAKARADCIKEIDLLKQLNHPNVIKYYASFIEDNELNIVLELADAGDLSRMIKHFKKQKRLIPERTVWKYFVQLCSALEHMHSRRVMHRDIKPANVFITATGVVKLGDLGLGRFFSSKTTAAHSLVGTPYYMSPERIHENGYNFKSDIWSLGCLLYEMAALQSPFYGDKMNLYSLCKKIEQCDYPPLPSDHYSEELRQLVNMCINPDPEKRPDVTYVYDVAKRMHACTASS
Sequence of DYRK1B (Q9Y463 whole entry): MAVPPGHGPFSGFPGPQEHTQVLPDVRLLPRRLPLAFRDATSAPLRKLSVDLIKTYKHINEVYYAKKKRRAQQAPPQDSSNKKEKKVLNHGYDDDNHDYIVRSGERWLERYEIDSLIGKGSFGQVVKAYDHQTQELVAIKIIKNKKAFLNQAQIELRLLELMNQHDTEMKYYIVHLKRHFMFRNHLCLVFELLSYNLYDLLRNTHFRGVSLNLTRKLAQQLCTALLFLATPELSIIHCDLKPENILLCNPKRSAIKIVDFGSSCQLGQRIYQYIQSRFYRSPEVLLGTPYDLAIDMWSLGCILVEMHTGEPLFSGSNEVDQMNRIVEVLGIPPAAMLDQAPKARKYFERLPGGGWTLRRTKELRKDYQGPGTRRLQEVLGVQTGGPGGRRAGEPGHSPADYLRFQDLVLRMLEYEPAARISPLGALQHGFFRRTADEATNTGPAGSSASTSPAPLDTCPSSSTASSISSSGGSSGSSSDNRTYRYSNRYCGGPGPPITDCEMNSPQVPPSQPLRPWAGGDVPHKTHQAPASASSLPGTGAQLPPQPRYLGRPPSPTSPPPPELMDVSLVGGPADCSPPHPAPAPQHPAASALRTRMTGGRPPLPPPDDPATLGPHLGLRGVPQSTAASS

Row | Compound | inhibition at 0.1 µM [1] [%] | inhibition at 1 µM [1] [%] | inhibition at 0.1 µM [2] [%] | inhibition at 1 µM [2] [%] | inhibition at 0.1 µM [3] [%] | inhibition at 1 µM [3] [%] | inhibition at 0.1 µM [4] [%] | inhibition at 1 µM [4] [%] | inhibition at 0.1 µM [5] [%] | inhibition at 1 µM [5] [%]
1 | COc1cc(-c2cc(-c3ccc(N4CCNCC4)cc3)cnc2C)cc(OC)c1OC [Compound 10, 1-(4-(6-methyl-5-(3,4,5-trimethoxyphenyl)pyridin-3-yl)phenyl)piperazine] | 4 | 3 | 2 | 5 | 7 | 11 | 4 | 23 | 1 | 1
2 | COc1cc(-c2cc(-c3ccc(N4CCNCC4)cc3)cnc2N)cc(OC)c1OC [Compound 15, 5-(4-(piperazin-1-yl)phenyl)-3-(3,4,5-trimethoxyphenyl)pyridin-2-amine] | 9 | 2 | -1 | 4 | 5 | 30 | 11 | 50 | 3 | 6
